Patent publication US5260340A, “Prevention and amelioration of acetaminophen toxicity with beta-carotene” (priority 1992, dated 1993)
Read-outs that look alike come from different tables or passages of the source.

Columns and labels:
acetaminophen toxicity [1] = experiment: Prevention of acetaminophen toxicity, pre-administration of beta-carotene in the diet: survival after IP acetaminophen 800 mg/kg; assay type: in vivo, 129/ReJ mice; settings: for mice alive seventy-two hours after injection: 800 mg/kg acetaminophen IP; for Survival 72 Hours After Ingestion (%) / Survival 72 Hours After Ingestion, Survivors/Sample: acetaminophen 800 mg/kg IP
Procedure: (§1) The total amount of beta-carotene consumed by mice in each experiment was computed using the estimates that a 25 gram mouse will consume […] of food and 25 ml/day of water, under normal conditions.
Nine 129/ReJ mice, (The Jackson Laboratory-Bar Harbor, Me.) were pre-fed a diet of Modified HLR 341 with 10 percent of 10% beta-carotene beadlets, 1.6 mg/kg of vitamin K, and 4,000 IU/kg of vitamin A (Dyets, Inc.--Bethlehem, Pa.) for a period of five months. Each mouse ingested about 7.5 grams of beta-carotene.
Each mouse then received an intraperitoneal (IP) injection of 800 mg/kg of acetaminophen (Fisher Scientific-Pittsburgh, Pa.) dissolved in 20% Tween 80 (Sigma Chemical Company -- St. Louis, Mo.) in saline. […]

acetaminophen toxicity [2] = experiment: Prevention of acetaminophen toxicity, simultaneous administration (Example 5): survival; assay type: in vivo, DBA/2J mice; settings: about 20 mg total beta-carotene per mouse by hour 24; 1% acetaminophen in water, 500 mg/kg IP at hours 24 and 30
Procedure: as §1
Four DBA/2J mice (The Jackson Laboratory) were weighed. Food was removed, and the mice were given drinking bottles containing a one percent aqueous solution of acetaminophen (Fisher Scientific) and 60 mg of beta-carotene per 100 ml ("Twinlab"--Twin Laboratories--Ronkonkoma, N.Y.). After twenty-two hours, the mice were given a Modified HLR 341 diet having 10 percent of 10% beta-carotene beadlets, 10% safflower oil food pellets, 6% lard, 1.6 mg/kg of vitamin K, and 4000 IU/kg of vitamin A (Dyets, Inc.). Each mouse ingested about 20 mg total beta-carotene from the water and food by the twenty-fourth hour.
At the twenty-fourth and thirtieth hours, all of the mice received an IP injection of 500 mg/kg of acetaminophen dissolved in 20% Tween 80 (Sigma Chemical Co.) in saline. At the forty-eighth hour, all of the mice were weighed, and the drinking bottles were filled with pure water.

acetaminophen toxicity [3] = experiment: Prevention of acetaminophen toxicity, simultaneous administration (Example 6): survival and body weight; assay type: in vivo, 129ReJ mice; settings: beta-carotene diet
Procedure: as §1
Ten 129ReJ mice (The Jackson Laboratory) were starved for twelve hours during which time they lost 4% of their original weight. The mice were then given drinking bottles containing a 0.1% aqueous solution of acetaminophen (Fisher Scientific). The mice were given a Modified HLR 341 diet with 10 percent of 10% beta-carotene beadlets, 10% safflower oil, 6% lard, 1.6 mg/kg of vitamin K, and 4000 IU/kg of vitamin A (Dyets, Inc.). The food regimen was continued throughout the remainder of the experiment.
At the sixtieth hour, all of the mice received an IP injection of 300 mg/kg of acetaminophen, and the drinking bottles were filled with pure water.

acetaminophen toxicity [4] = experiment: Antidotal treatment of acetaminophen toxicity (Example 7): survival and weight restoration; assay type: in vivo, 129/ReJ mice
Procedure: as §1
(§2) The design of this experiment was predicated on the clinical time sequence involved in, or associated with, acetaminophen overdose and toxicity, and the biological response of mice to lethal injections of this drug. When a human ingests a toxic, potentially lethal dose of acetaminophen, few if any, clinical signs manifest during the first forty-eight hours. The patient remains alert and can take food voluntarily or by a nasal gastric tube. […] Because the time course of human toxicity implies that a patient could orally ingest an antidote such as beta-carotene within the forty-eight hour period immediately following an overdose, it was proposed that a comparative animal model would be feeding subjects with a beta-carotene diet for forty-eight hours prior to the administration of a known lethal dose of acetaminophen.
Eight 129/ReJ mice (The Jackson Laboratory) were wholly or partially starved for seventy-two hours to enhance their appetite. Mean weight loss during this period was 13%. […] Each mouse ingested about 0.1 gram of beta-carotene by the forty-eighth hour. […]

acetaminophen toxicity [5] = experiment: Antidotal treatment of acetaminophen toxicity (Example 8): survival and weight regain; assay type: in vivo, DBA/2J mice
Procedure: as §1, §2
Twelve DBA/2J mice (The Jackson Laboratory) were weighed and starved for seventy-two hours. The mean weight loss during this time was 27%. The mice received a Modified HLR 341 diet with 10 percent of 10% beta-carotene beadlets, 10% safflower oil, 6% lard, 1.6 mg/kg of vitamin K, and […] of vitamin A (Dyets, Inc.). The mice regained 86% of their original weight. Each mouse ingested about 0.1 gram of beta-carotene by the forty-eighth hour.
After forty-eight hours on the experimental diet, the mice received an IP injection of 800 mg/kg of acetaminophen (Fisher Scientific) dissolved in 20% Tween 80 (Sigma Chemical Co.) in saline.
The mice were reweighed, and a second injection of 600 mg/kg of acetaminophen dissolved in 20% Tween 80 in saline was given to each mouse. By seventy hours after the first injection, 92% of the mice were alive.

[6] = test system: aflatoxin-induced liver toxicity; settings: chickens; simultaneous administration; cited from earlier work
[7] = test system: toxic side effects of antibiotics; settings: plants; cited from earlier work
toxicity due to aspirin = settings: in vivo; cited from earlier work
cytochrome P450 = settings: fourteen days of dietary beta-carotene supplement; mouse liver homogenates; cited from earlier work
[8] = test system: Kupffer cells of the liver; settings: in vivo; cited from earlier work
[9] = human; not yet determined; cited from earlier work
[10] = mammals; cited from earlier work
mice = experiment: Feeding of mice following IP injection of a lethal dose of acetaminophen; assay type: in vivo
liver = settings: cited from earlier work
[11] = cited from earlier work
[12] = cited from earlier work; remark: listed apart in the source
[13] = test system: duodenal ulcers and stress ulcers; settings: rats fed 3-, 4-diaminotoluene; cited from earlier work
[14] = acetaminophen in water, 600 mg/kg IP after hour 48 and 300 mg/kg IP at hour 60
[15] = forty-eight hours on beta-carotene diet after starvation, before acetaminophen

In the case of `CC1=C(/C=C/C(C)=C/C=C/C(C)=C/C=C/C=C(C)/C=C/C=C(C)/C=C/C2=C(C)CCCC2(C)C)C(C)(C)CCC1` [beta-carotene], the “survival rate compared with Comparative Examples 1A*-4A*” value (acetaminophen toxicity [1]; administration before challenge with toxic amounts of acetaminophen) is reported as “increases the survival rate significantly”, the “mice alive seventy-two hours after injection” value (shortened to “mice alive seventy-two hours”) (acetaminophen toxicity [1]; nine mice, pre-fed five months (about 7.5 grams beta-carotene)) is reported as “all mice were alive” and the “mice alive seventy-two hours” value (acetaminophen toxicity [1]; nineteen mice, pre-fed seven days (about 0.35 grams beta-carotene)) is reported as “five of the mice were alive”. The “Survival 72 Hours After Ingestion (%)” value (acetaminophen toxicity [1]; pre-feeding 5 Months) was 100%, the “Survival 72 Hours After Ingestion, Survivors/Sample” value (acetaminophen toxicity [1]; pre-feeding 5 Months) was 9/9 and the “Survival 72 Hours After Ingestion (%)” value (acetaminophen toxicity [1]; pre-feeding 5 Weeks) was 65%. The “Survival 72 Hours After Ingestion, Survivors/Sample” value (acetaminophen toxicity [1]; pre-feeding 5 Weeks) was 13/20, the “Survival 72 Hours After Ingestion (%)” value (acetaminophen toxicity [1]; pre-feeding 7 Days) was 26% and the “Survival 72 Hours After Ingestion, Survivors/Sample” value (acetaminophen toxicity [1]; pre-feeding 7 Days) was 5/19. For the same compound, the “Survival 72 Hours After Ingestion (%)” value (acetaminophen toxicity [1]; pre-feeding 23 Days) was 100%, the “Survival 72 Hours After Ingestion, Survivors/Sample” value (acetaminophen toxicity [1]; pre-feeding 23 Days) was 20/20 and the “mice alive seventy-two hours” value (acetaminophen toxicity [1]; twenty mice, pre-fed five weeks (about 1.75 grams beta-carotene)) was “thirteen of the mice were alive”. For the same compound, the “mice alive seventy-two hours” value (acetaminophen toxicity [1]; twenty mice, pre-fed twenty-three days (about 1.15 grams beta-carotene)) was “twenty of the mice were alive”, the “mice alive by the seventy-second hour” value (acetaminophen toxicity [2]) was 75% and the “body weight after twenty-four hours” value (acetaminophen toxicity [3]; 0.1% aqueous acetaminophen) was “regained or increased their original weight”. The “body weight after the forty-eighth hour” value (acetaminophen toxicity [3]; 0.5% aqueous acetaminophen) was “maintenance of the mice's original weight”, the “animals alive at the seventy-second hour” value (acetaminophen toxicity [3]; [14]) was “all of the animals were alive” and the “mice alive at the one hundred fiftieth hour” value (acetaminophen toxicity [3]; [14]) was 90%. For the same compound, the “body weight, of original weights, at the one hundred fiftieth hour” value (acetaminophen toxicity [3]; acetaminophen in water, 600 and 300 mg/kg IP) was 93%, the “mice alive seventy-two hours” value (acetaminophen toxicity [4]; beta-carotene diet for forty-eight hours (about 0.1 gram per mouse), 800 mg/kg acetaminophen IP) was 63% and the “restoration of original weight” value (acetaminophen toxicity [4]; [15]) was 98%. The “mice alive by seventy hours after the first injection” value (acetaminophen toxicity [5]; about 0.1 gram beta-carotene, acetaminophen 800 mg/kg IP then 600 mg/kg) was 92%, the “regain of original weight” value (acetaminophen toxicity [5]; [15]) was 86% and the “mice that had died by thirty-six hours after the injection” value (acetaminophen toxicity [5]; twelve mice, about 0.1 gram beta-carotene, 800 mg/kg acetaminophen IP) was “one mouse had died”. The aflatoxin-induced liver toxicity [6] was “reduction of aflatoxin-induced liver toxicity”, the “toxic side effects of antibiotics” value [7] was “prevent the toxic side effects of antibiotics” and the “adverse side effects and toxicity due to aspirin” value (toxicity due to aspirin) was “reduced adverse side effects and toxicity due to aspirin”. For the same compound, the “cytochrome P450” value (cytochrome P450) was “reduced cytochrome P450”, the “deposition in liver cells” value [8] was “deposited in, and remains sequestered in, only the Kupffer cells of the liver” and the “safe upper limit (believed)” value [9] was “at least 1,000 mg/day”. For the same compound, the “oxidative cleavage at the central double bond” value [10] was “readily undergoes oxidative cleavage at the central double bond”.
For `CC(=O)Nc1ccc(O)cc1` [acetaminophen], the “feeding following IP injection of a lethal dose” value (mice) is listed as “cease to feed”, the “time of hepatic failure after ingestion” value (liver; acute acetaminophen toxicity) is listed as “three to five” and the “ingestion at which mortality is significantly higher” value (liver; acute ingestion) is listed as “exceeds 25 grams”. The toxic dosage (liver; adult) was “greater than 10 grams”, the toxic dosage (liver; child) was ≥ 140 milligrams per kilogram and the “dosage that has resulted in chronic liver disease” value (liver; long term dosages, as low as) was “three”. The half-life ([11]; normal dosages, normal patient) was “about 21/2”, the half-life ([11]; severe hepatocellular injury) was “over 4 hours” and the solubility in water [12] was “soluble in water”.
For vitamin A, the “adverse side effects and toxicity due to aspirin” value (toxicity due to aspirin) is given as “reduced adverse side effects and toxicity due to aspirin” and the “duodenal ulcers and stress ulcers” value [13] is given as “could prevent duodenal ulcers and stress ulcers”.
